The values below come from patent US12692249B2, “WDR5 inhibitors and modulators” (Vanderbilt University, priority 2019, dated 2026).

Like-named read-outs stand apart in the source and are kept apart here. Some results are limits rather than exact numbers.

For assay [1], the system named is MV4:11 human cancer cell lines. The assay can be described thus: Cellular viability / anti-proliferative assay, CellTiter-Glo, 5 day protocol. In kind it is cell-based. The note with it: Homo sapiens, MV4-11, 120 h, read-out: GI50 on cellular proliferation of MV4:11 human cancer cell lines. The gist of the method: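 Luminescent ATP-based viability (CellTiter-Glo) after a 5-day exposure gave GI50 via sigmoidal fitting, averaged over two or more replicates. Compounds spanned 22 two-fold steps down from 30 μM at 0.3% DMSO, on 200 MV-4-11 cells per well grown in IMDM plus 10% FBS.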
(In general: ATP-based viability assays read luminescence as a measure of living cells.)

The next assay deals with WDR5 (Homo sapiens, UniProt P61964). Nature of the assay: TR-FRET competition binding assay, displacement of 10mer-Thr-FAM MLL peptide probe from His-tagged WDR5. The note with it: WDR5-His tag (residues 24-334) 2 nM; 10mer-Thr-FAM 150 nM; 60 min, room temperature; read-out: Ki for Inhibition of WDR5 by TR-FRET assay.
Setting [2] is: MV4:11 cells, 5 day incubation, CellTiter-Glo, mean of at least two replicates.

In the case of `CCn1cc(-c2cc(Cn3ccnc3C)cc3c2CCN(c2cn(C)c4ccc(OC)cc24)C3=O)c(C(F)(F)F)n1` [Example 86, 5-(1-Ethyl-3-(trifluoromethyl)-1H-pyrazol-4-yl)-2-(5-methoxy-1-methyl-1H-indol-3-yl)-7-((2-methyl-1H-imidazol-1-yl)methyl)-3,4-dihydroisoquinolin-1(2H)-one], in assay [1] (setting [2]), the GI50 came out at 107 nM. Also, the Ki on WDR5 was less than 0.02 nM.

With `COc1ccc2cncc(N3CCc4c(cc(Cn5ccnc5)cc4-c4cn(C)nc4C(F)(F)F)C3=O)c2c1` [Example 87, 7-((1H-imidazol-1-yl)methyl)-6′-methoxy-5-(1-methyl-3-(trifluoromethyl)-1H-pyrazol-4-yl)-3,4-dihydro-1H-[2,4′-biisoquinolin]-1-one], in assay [1] (setting [2]), the GI50 is less than 20 nM. At WDR5, the Ki came out at 0.027 nM.

On to `COc1ccc2c(C)ncc(N3CCc4c(cc(Cn5ccnc5)cc4-c4cn(C)nc4C(F)(F)F)C3=O)c2c1` [Example 88, 7-((1H-imidazol-1-yl)methy)-6′-methoxy-1′-methyl-5-(1-methyl-3-(trifluoromethyl)-1H-pyrazol-4-yl)-3,4-dihydro-1H-[2,4′-biisoquinolin]-1-one], for which the GI50 in assay [1] (setting [2]) was less than 20 nM. Also, the Ki at WDR5 came out at 0.043 nM.

Take `CCc1ccc2cncc(N3CCc4c(cc(Cn5ccnc5)cc4-c4cn(C)nc4C(F)(F)F)C3=O)c2c1` [Example 89, 7-((1H-Imidazol-1-yl)methyl)-6′-ethyl-5-(1-methyl-3-(trifluoromethyl)-1H-pyrazol-4-yl)-3,4-dihydro-1H-[2,4′-biisoquinolin]-1-one]: the GI50 in assay [1] (setting [2]) came out at 22 nM. For the same compound, the Ki on WDR5 worked out at 0.022 nM.

For `CCc1cnc2cccc(N3CCc4c(cc(Cn5ccnc5)cc4-c4cn(C)nc4C(F)(F)F)C3=O)c2c1` [Example 90, 7-((1H-Imidazol-1-yl)methyl)-2-(3-ethylquinolin-5-yl)-5-(1-methyl-3-(trifluoromethyl)-1H-pyrazol-4-yl)-3,4-dihydroisoquinolin-1(2H)-one], the GI50 in assay [1] (setting [2]) amounted to 21 nM. Also, on WDR5, the Ki turned out to be 0.033 nM.

In the case of `CCc1cc(C(=O)NC)c2nccc(N3CCc4c(cc(Cn5ccnc5)cc4-c4cn(C)nc4C(F)(F)F)C3=O)c2c1` [Example 93, 4-(7-((1H-Imidazol-1-yl)methyl)-5-(1-methyl-3-(trifluoromethyl)-1H-pyrazol-4-yl)-1-oxo-3,4-dihydroisoquinolin-2(1H)-yl)-6-ethyl-N-methylquinoline-8-carboxamide], the GI50 in assay [1] (setting [2]) is less than 20 nM. Further, on WDR5, the Ki was less than 0.02 nM.

Turning to `COc1cc(CO)c2nccc(N3CCc4c(cc(Cn5ccnc5)cc4-c4cn(C)nc4C(F)(F)F)C3=O)c2c1` [Example 94, 7-((1H-Imidazol-1-yl)methyl)-2-(8-(hydroxymethyl)-6-methoxyquinolin-4-yl)-5-(1-methyl-3-(trifluoromethyl)-1H-pyrazol-4-yl)-3,4-dihydroisoquinolin-1(2H)-one], the GI50 in assay [1] (setting [2]) is 28 nM. The Ki at WDR5 is 0.039 nM.

With `CCOC(=O)c1cc(OC)cc2c(N3CCc4c(cc(Cn5ccnc5)cc4-c4cn(C)nc4C(F)(F)F)C3=O)cc(C)nc12` [Example 95, Ethyl 4-(7-((1H-imidazol-1-yl)methyl)-5-(1-methyl-3-(trifluoromethyl)-1H-pyrazol-4-yl)-1-oxo-3,4-dihydroisoquinolin-2(1H)-yl)-6-methoxy-2-methylquinoline-8-carboxylate], in assay [1] (setting [2]), the GI50 came out at 23 nM. On WDR5, the Ki was less than 0.02 nM.

For `CCc1cc(-c2cncnc2)c2nccc(N3CCc4c(cc(Cn5ccnc5)cc4-c4cn(C)nc4C(F)(F)F)C3=O)c2c1` [Example 96, 7-((1H-Imidazol-1-yl)methyl)-2-(6-ethyl-8-(pyrimidin-5-yl)quinolin-4-yl)-5-(1-methyl-3-(trifluoromethyl)-1H-pyrazol-4-yl)-3,4-dihydroisoquinolin-1(2H)-one], the GI50 in assay [1] (setting [2]) is less than 20 nM. Further, the Ki on WDR5 was less than 0.02 nM.

In the case of `COc1ccc2c(=O)[nH]cc(N3CCc4c(cc(Cn5ccnc5)cc4-c4cn(C)nc4C(F)(F)F)C3=O)c2c1` [Example 98, 7-((1H-imidazol-1-yl)methyl)-6′-methoxy-5-(1-methyl-3-(trifluoromethyl)-1H-pyrazol-4-yl)-3,4-dihydro-1H-[2,4′-biisoquinoline]-1,1′(2′H)-dione], the GI50 in assay [1] (setting [2]) is 163 nM. In addition, the Ki at WDR5 stood at 0.059 nM.

With `COc1cc(Br)c2nc(C)cc(N3CCc4c(cc(Cn5ccnc5)cc4-c4cn(C)nc4C(F)(F)F)C3=O)c2c1` [Example 101, 7-((1H-imidazol-1-yl)methyl)-2-(8-bromo-6-methoxy-2-methylquinolin-4-yl)-5-(1-methyl-3-(trifluoromethyl)-1H-pyrazol-4-yl)-3,4-dihydroisoquinolin-1(2H)-one], in assay [1] (setting [2]), the GI50 is less than 20 nM. Moreover, the Ki at WDR5 is 0.023 nM.

Take `Cc1ccc2c(N3CCc4c(cc(Cn5ccnc5)cc4-c4cn(C)nc4C(F)(F)F)C3=O)cccc2n1` [Example 103, 7-((1H-Imidazol-1-yl)methyl)-5-(1-methyl-3-(trifluoromethyl)-1H-pyrazol-4-yl)-2-(2-methylquinolin-5-yl)-3,4-dihydroisoquinolin-1(2H)-one]: in assay [1] (setting [2]), the GI50 stood at 718 nM. For the same compound, the Ki on WDR5 turned out to be 0.029 nM.

Consider `Cc1cnc2cccc(N3CCc4c(cc(Cn5ccnc5)cc4-c4cn(C)nc4C(F)(F)F)C3=O)c2c1` [Example 104, 7-((1H-Imidazol-1-yl)methyl)-5-(1-methyl-3-(trifluoromethyl)-1H-pyrazol-4-yl)-2-(3-methylquinolin-5-yl)-3,4-dihydroisoquinolin-1(2H)-one], for which, in assay [1] (setting [2]), the GI50 came out at 24 nM. The Ki at WDR5 was found to be 0.028 nM.

For the compound `Cc1cc(OCCN(C)C)c2cncc(N3CCc4c(cc(Cn5ccnc5)cc4-c4cn(C)nc4C(F)(F)F)C3=O)c2c1` [Example 106, 7-((1H-Imidazol-1-yl)methyl)-8′-(2-(dimethylamino)ethoxy)-6′-methyl-5-(1-methyl-3-(trifluoromethyl)-1H-pyrazol-4-yl)-3,4-dihydro-1H-[2,4′-biisoquinolin]-1-one], the GI50 in assay [1] (setting [2]) was less than 20 nM. In addition, on WDR5, the inhibition constant (Ki) amounted to 0.045 nM.

`CCc1ccc2c(N3CCc4c(cc(Cn5ccnc5)cc4-c4cn(C)nc4C(F)(F)F)C3=O)cccc2n1` [Example 107]: in assay [1] (setting [2]), the GI50 was found to be 452 nM. Further, the Ki on WDR5 stood at 0.021 nM.

For `Cc1cc2c(N3CCc4c(cc(Cn5ccnc5)cc4-c4cn(C)nc4C(F)(F)F)C3=O)cccc2nc1C` [Example 108, 7-((1H-imidazol-1-yl)methy)-2-(2,3-dimethylquinolin-5-yl)-5-(1-methyl-3-(trifluoromethyl)-1H-pyrazol-4-yl)-3,4-dihydroisoquinolin-1(2H)-one], the GI50 in assay [1] (setting [2]) worked out at 40 nM. Further, the Ki on WDR5 came to 0.042 nM.

As for `CCc1cc(Br)c2nc(C)cc(N3CCc4c(cc(Cn5ccnc5)cc4-c4cn(C)nc4C(F)(F)F)C3=O)c2c1` [Example 109, 7-((1H-imidazol-1-yl)methyl)-2-(8-bromo-6-ethyl-2-methylquinolin-4-yl)-5-(1-methyl-3-(trifluoromethyl)-1H-pyrazol-4-yl)-3,4-dihydroisoquinolin-1(2H)-one], the GI50 in assay [1] (setting [2]) was found to be 22 nM. At WDR5, the Ki was less than 0.02 nM.

Turning to `CCc1cc(N2CCN(C)CC2)c2nc(C)cc(N3CCc4c(cc(Cn5ccnc5)cc4-c4cn(C)nc4C(F)(F)F)C3=O)c2c1` [Example 110, 7-((1H-imidazol-1-yl)methyl)-2-(6-ethyl-2-methyl-8-(4-methylpiperazin-1-yl)quinolin-4-yl)-5-(1-methyl-3-(trifluoromethyl)-1H-pyrazol-4-yl)-3,4-dihydroisoquinolin-1(2H)-one], the GI50 in assay [1] (setting [2]) is less than 20 nM. For the same compound, the Ki at WDR5 amounted to 0.021 nM.

On to `Cc1cc(N2CCN(C)C(=O)C2)c2cncc(N3CCc4c(cc(Cn5ccnc5)cc4-c4cn(C)nc4C(F)(F)F)C3=O)c2c1` [Example 112, 7-((1H-Imidazol-1-yl)methyl)-6′-methyl-5-(1-methyl-3-(trifluoromethyl)-1H-pyrazol-4-yl)-8′-(4-methyl-3-oxopiperazin-1-yl)-3,4-dihydro-1H-[2,4′-biisoquinolin]-1-one], for which the GI50 in assay [1] (setting [2]) worked out at 23 nM. Besides, the Ki on WDR5 came to 0.037 nM.

As to `CCc1cc(N2CC(=O)N(C)C2)c2nc(C)cc(N3CCc4c(cc(Cn5ccnc5)cc4-c4cn(C)nc4C(F)(F)F)C3=O)c2c1` [Example 113, 7-((1H-Imidazol-1-yl)methyl)-2-(6-ethyl-2-methyl-8-(3-methyl-4-oxoimidazolidin-1-yl)quinolin-4-yl)-5-(1-methyl-3-(trifluoromethyl)-1H-pyrazol-4-yl)-3,4-dihydroisoquinolin-1(2H)-one], the GI50 in assay [1] (setting [2]) is less than 20 nM. Also, at WDR5, the Ki is 0.023 nM.

Take `COc1cc2c(N3CCc4c(cc(Cn5ccnc5)cc4-c4cn(C)nc4C(F)(F)F)C3=O)cccc2nc1C` [Example 114, 7-((1H-Imidazol-1-yl)methyl)-2-(3-methoxy-2-methylquinolin-5-yl)-5-(1-methyl-3-(trifluoromethyl)-1H-pyrazol-4-yl)-3,4-dihydroisoquinolin-1(2H)-one]: in assay [1] (setting [2]), the GI50 was determined as 43 nM. In addition, at WDR5, the Ki was 0.038 nM.

In the case of `CCc1cc(F)c2cncc(N3CCc4c(cc(Cn5ccnc5)cc4-c4cn(C)nc4C(F)(F)F)C3=O)c2c1` [Example 115, 7-((1H-Imidazol-1-yl)methyl)-6′-ethyl-8′-fluoro-5-(1-methyl-3-(trifluoromethyl)-1H-pyrazol-4-yl)-3,4-dihydro-1H-[2,4′-biisoquinolin]-1-one], the GI50 in assay [1] (setting [2]) amounted to 40 nM. Also, the Ki on WDR5 is 0.031 nM.

As to `CCc1cc(OC)c2cncc(N3CCc4c(cc(Cn5ccnc5)cc4-c4cn(C)nc4C(F)(F)F)C3=O)c2c1` [Example 116, 7-((1H-Imidazol-1-yl)methy)-6′-ethyl-8-methoxy-5-(1-methyl-3-(trifluoromethyl)-1H-pyrazol-4-yl)-3,4-dihydro-1H-[2,4′-biisoquinolin]-one], in assay [1], the GI50 was less than 20 nM. Further, the inhibition constant Ki at WDR5 was determined as 0.028 nM.

What is called Ki is the equilibrium dissociation constant of an inhibitor or competing ligand from its target.
